Key:
[1] = biological target: Lysine-specific histone demethylase 1A (Homo sapiens, UniProt O60341); experiment: Inhibition of human recombinant LSD1 (852 residues) incubated for 1 hr by HTRF method
HL-60 = experiment: Antiproliferative activity against human HL-60 cells assessed as inhibition of cell growth measured after 7 days by cell-titer glo assay; assay type: functional, cell-based; details: HL-60, 168 h
THP-1 = experiment: Antiproliferative activity against human THP-1 cells assessed as inhibition of cell growth measured after 7 days by cell-titer glo assay; assay type: functional, cell-based; details: THP-1, 168 h
MV4-11 = experiment: Antiproliferative activity against human MV4-11 cells assessed as inhibition of cell growth measured after 7 days by cell-titer glo assay; assay type: functional, cell-based; details: MV4-11, 168 h
[2] = biological target: Voltage-gated inwardly rectifying potassium channel KCNH2 (Homo sapiens, UniProt Q12809); experiment: Inhibition of human ERG by whole cell patch clamp assay; assay type: toxicity
Sequence of Voltage-gated inwardly rectifying potassium channel KCNH2 (Q12809 whole entry): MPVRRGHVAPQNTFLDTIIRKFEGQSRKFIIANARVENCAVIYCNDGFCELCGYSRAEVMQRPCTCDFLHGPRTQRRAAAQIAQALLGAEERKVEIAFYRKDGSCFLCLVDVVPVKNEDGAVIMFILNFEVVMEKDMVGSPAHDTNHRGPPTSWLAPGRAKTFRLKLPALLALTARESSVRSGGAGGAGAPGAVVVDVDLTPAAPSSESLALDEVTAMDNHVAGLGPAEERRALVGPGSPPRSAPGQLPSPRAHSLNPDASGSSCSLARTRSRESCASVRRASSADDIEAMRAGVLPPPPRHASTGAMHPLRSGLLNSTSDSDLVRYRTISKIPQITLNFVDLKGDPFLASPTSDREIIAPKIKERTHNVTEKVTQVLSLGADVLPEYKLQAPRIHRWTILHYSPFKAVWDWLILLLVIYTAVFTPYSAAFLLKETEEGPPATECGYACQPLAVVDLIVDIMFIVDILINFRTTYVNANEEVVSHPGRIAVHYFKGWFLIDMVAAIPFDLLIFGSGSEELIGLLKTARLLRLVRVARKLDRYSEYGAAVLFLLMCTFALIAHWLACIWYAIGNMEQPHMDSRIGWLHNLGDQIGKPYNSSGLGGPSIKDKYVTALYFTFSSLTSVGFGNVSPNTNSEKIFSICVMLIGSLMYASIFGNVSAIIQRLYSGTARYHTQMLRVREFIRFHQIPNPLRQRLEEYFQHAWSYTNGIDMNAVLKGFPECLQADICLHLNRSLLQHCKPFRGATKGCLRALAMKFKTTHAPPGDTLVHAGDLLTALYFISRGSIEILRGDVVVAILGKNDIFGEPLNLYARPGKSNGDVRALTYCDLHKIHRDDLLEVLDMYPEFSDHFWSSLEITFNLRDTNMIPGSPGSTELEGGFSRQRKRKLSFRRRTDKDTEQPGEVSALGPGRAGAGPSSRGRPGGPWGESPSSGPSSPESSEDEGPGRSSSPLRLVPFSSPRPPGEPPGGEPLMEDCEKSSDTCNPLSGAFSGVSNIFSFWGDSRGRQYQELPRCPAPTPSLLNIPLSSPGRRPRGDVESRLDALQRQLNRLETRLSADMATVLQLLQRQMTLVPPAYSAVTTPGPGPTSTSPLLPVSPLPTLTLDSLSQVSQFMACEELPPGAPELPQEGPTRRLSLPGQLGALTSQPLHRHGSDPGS

Row | IC50 [1] | IC50 (HL-60) | IC50 (THP-1) | IC50 (MV4-11) | Compound | IC50 [2]
1 | 0.0579 µM | – | – | – | Fc1ccc([C@@H]2C[C@H]2NCc2cn(CCc3ccc4[nH]ncc4c3)nn2)cc1F | –
2 | 0.0156 µM | 2.83 µM | 8.32 µM | 7.84 µM | O=C(Cc1ccccc1)n1ncc2cc(-n3cc(CN[C@@H]4C[C@H]4c4ccc(F)c(F)c4)nn3)ccc21 | –
3 | 0.00663 µM | 15.5 µM | 3.95 µM | 12.5 µM | Fc1ccc([C@@H]2C[C@H]2NCc2cn(-c3cccc4[nH]ncc34)nn2)cc1F | –
4 | 0.00414 µM | 4.05 µM | 3.88 µM | 2.86 µM | Fc1ccc([C@@H]2C[C@H]2NCc2cn(-c3ccc4c(cnn4C4CCCC4)c3)nn2)cc1F | –
5 | 0.00482 µM | 1.88 µM | 2.41 µM | 4.33 µM | O=S(=O)(C1CCCCC1)n1ncc2cc(-n3cc(CN[C@@H]4C[C@H]4c4ccc(F)c(F)c4)nn3)ccc21 | –
6 | 0.00645 µM | 7.44 µM | 7.5 µM | 6.86 µM | Fc1ccc([C@@H]2C[C@H]2NCc2cn(-c3cc4cn[nH]c4cc3F)nn2)cc1F | –
7 | 0.0146 µM | 2.41 µM | 24.3 µM | 3.31 µM | CS(=O)(=O)n1ncc2cc(-n3cc(CN[C@@H]4C[C@H]4c4ccc(F)c(F)c4)nn3)ccc21 | –
8 | 0.00755 µM | 2.81 µM | 12.9 µM | 6.3 µM | O=C(c1ccccc1)n1ncc2cc(-n3cc(CN[C@@H]4C[C@H]4c4ccc(F)c(F)c4)nn3)ccc21 | –
9 | 0.0051 µM | > 25 µM | > 25 µM | > 25 µM | Fc1ccc([C@@H]2C[C@H]2NCc2cn(-c3n[nH]c4ccccc34)nn2)cc1F | –
10 | 0.0115 µM | 2.47 µM | 6.34 µM | 6.56 µM | Fc1ccc([C@@H]2C[C@H]2NCc2cn(Cc3ccc4[nH]ncc4c3)nn2)cc1F | –
11 | 0.00346 µM | 10.9 µM | 12.6 µM | 8.74 µM | COc1cc2[nH]ncc2cc1-n1cc(CN[C@@H]2C[C@H]2c2ccc(F)c(F)c2)nn1 | –
12 | 0.0038 µM | 7.83 µM | 6.52 µM | 3.52 µM | CCn1ncc2cc(-n3cc(CN[C@@H]4C[C@H]4c4ccc(F)c(F)c4)nn3)ccc21 | –
13 | 0.00462 µM | 2.49 µM | 4.52 µM | 17.1 µM | Cn1ncc2cc(-n3cc(CN[C@@H]4C[C@H]4c4ccc(F)c(F)c4)nn3)ccc21 | –
14 | 0.0111 µM | 4.11 µM | 5.7 µM | 6.28 µM | Cc1cc2[nH]ncc2cc1-n1cc(CN[C@@H]2C[C@H]2c2ccc(F)c(F)c2)nn1 | –
15 | 0.0159 µM | 3 µM | 5.57 µM | 9.67 µM | O=C(C1CCCCC1)n1ncc2cc(-n3cc(CN[C@@H]4C[C@H]4c4ccc(F)c(F)c4)nn3)ccc21 | –
16 | 0.0209 µM | – | – | – | Fc1ccc([C@@H]2C[C@H]2NCc2cn(-c3cnc4[nH]ncc4c3)nn2)cc1F | –
17 | 0.012 µM | 3.44 µM | 8.37 µM | 8.25 µM | O=C(C1CCCC1)n1ncc2cc(-n3cc(CN[C@@H]4C[C@H]4c4ccc(F)c(F)c4)nn3)ccc21 | –
18 | 0.0155 µM | 6.12 µM | 10.9 µM | 5.51 µM | O=C(C1CCC1)n1ncc2cc(-n3cc(CN[C@@H]4C[C@H]4c4ccc(F)c(F)c4)nn3)ccc21 | –
19 | 0.00828 µM | 3.83 µM | 1.67 µM | 4.08 µM | Fc1ccc([C@@H]2C[C@H]2NCc2cn(-c3ccc4c(cnn4Cc4ccccc4)c3)nn2)cc1F | –
20 | 0.0144 µM | > 25 µM | 3.76 µM | > 25 µM | Fc1ccc([C@@H]2C[C@H]2NCc2cn(-c3ccc4cn[nH]c4c3)nn2)cc1F | –
21 | – | – | – | – | Fc1ccc([C@@H]2C[C@H]2NCc2cn(-c3ccc4[nH]ncc4c3)nn2)cc1F | 0.61 µM
22 | 0.0123 µM | 5.5 µM | 5.94 µM | 2.61 µM | O=C(C1CC1)n1ncc2cc(-n3cc(CN[C@@H]4C[C@H]4c4ccc(F)c(F)c4)nn3)ccc21 | –
23 | 0.0084 µM | 4.22 µM | 5.4 µM | 3.87 µM | CC(=O)n1ncc2cc(-n3cc(CN[C@@H]4C[C@H]4c4ccc(F)c(F)c4)nn3)ccc21 | –
24 | 0.00997 µM | 3.42 µM | 3.59 µM | 3.89 µM | CC(C)C(=O)n1ncc2cc(-n3cc(CN[C@@H]4C[C@H]4c4ccc(F)c(F)c4)nn3)ccc21 | –
25 | 0.00777 µM | 6.81 µM | 4.59 µM | 11.5 µM | CCS(=O)(=O)n1ncc2cc(-n3cc(CN[C@@H]4C[C@H]4c4ccc(F)c(F)c4)nn3)ccc21 | –
26 | 0.0116 µM | 1.53 µM | 7.29 µM | 2.56 µM | CCC(=O)n1ncc2cc(-n3cc(CN[C@@H]4C[C@H]4c4ccc(F)c(F)c4)nn3)ccc21 | –
27 | 0.00159 µM | 1.86 µM | 5.01 µM | 10.9 µM | Fc1ccc([C@@H]2C[C@H]2NCc2cn(-c3ccc4c(cnn4CC(F)(F)F)c3)nn2)cc1F | –
28 | 0.0043 µM | 5.57 µM | 3.39 µM | 6.32 µM | O=S(=O)(C1CC1)n1ncc2cc(-n3cc(CN[C@@H]4C[C@H]4c4ccc(F)c(F)c4)nn3)ccc21 | –

— ChEMBL document CHEMBL6134819, “Discovery of novel tranylcypromine-indazole-based derivatives as LSD1 inhibitors for acute myeloid leukemia treatment” (Eur J Med Chem, 2025)
